# Patent US20210177795A1 (priority 2017, published 2021)
# Entries after “also recorded” stand apart in the source; their conditions may differ.
# Legend:
# cytokines/chemokines = test system: cytokines/chemokines; parameters: species or system C57BL/6 mice; details: mouse, in vivo
# [1] = mouse, in vivo
# KC = test system: KC; parameters: species or system C57BL/6 mice; details: mouse, in vivo
# IL-10 = test system: IL-10; parameters: species or system C57BL/6 mice; details: mouse, in vivo
# RANTES = test system: RANTES; parameters: species or system C57BL/6 mice; details: mouse, in vivo
# IL-6 = test system: IL-6; parameters: species or system C57BL/6 mice; details: mouse, in vivo
# [2] = test system: Udorn influenza virus (A/Udorn/307/72 (H3N2)); parameters: species or system C57BL/6 mice; details: mouse, in vivo
# MCP-1 = test system: MCP-1; parameters: species or system C57BL/6 mice; details: mouse, in vivo
compound,measurement,setting,value
"CCC(=O)OCC(CSCC(N)C(=O)NC(CO)C(=O)NCCOCC(=O)NCC(N)=O)OC(=O)CC (stereo not drawn) [INNA-006, PEG-S-Pam2Cys]","cytokine/chemokine levels in nasal turbinates, lungs and sera, 3 repeat doses vs single dose",cytokines/chemokines,marked decrease
same,"cytokine/chemokine profiles in lungs, trachea and sera, single vs triple dose regimes",cytokines/chemokines,no discernible differences
same,"proinflammatory cytokines and chemokines including IL-6, KC & MCP-1 in nasal turbinates vs saline",cytokines/chemokines,increases were detected in a dose-dependent manner
same,greatest weight loss,[1],1.87%±1.33%
same,KC in the lungs compared to the saline control,KC,no significance
same,KC level in lungs,KC,~14 pg/mL
same,KC level in nasal turbinates,KC,~83 pg/mL
same,KC levels in the lung,KC,~16.3 pg/mL
same,fold increase of KC in nasal turbinates vs saline,KC,2 fold
same,fold increase of KC secretion in lungs compared to INNA-003,KC,2 fold
same,fold increase of KC secretion in lungs compared to saline control,KC,3 fold
same,IL-10 level in nasal turbinates,IL-10,~17 pg/mL
same,fold increase of IL-10 in nasal turbinates vs saline,IL-10,2 fold
same,RANTES level in nasal turbinates,RANTES,~141 pg/mL
same,RANTES secretion in nasal turbinates compared to INNA-003,RANTES,increased RANTES secretion
same,fold increase of RANTES in nasal turbinates vs saline,RANTES,1.9 fold
same,"IL-6 in nasal turbinates, fold lower with 3 doses vs single dose",IL-6,approximately 25 fold
same,fold increase in IL-6 levels in nasal turbinates vs saline,IL-6,98 fold
same,progression of influenza virus to the lungs,[2],significantly inhibited; also recorded: partial inhibition
same,MCP-1 level in nasal turbinates,MCP-1,~66 pg/mL
same,fold increase of MCP-1 in nasal turbinates vs saline,MCP-1,7 fold
"CCCCCCCCCCCCCCCC(=O)OCC(CSC[C@H](N)C(=O)N[C@@H](CO)C(=O)N[C@@H](CO)C(=O)NCCOCCOCCOCCOCCOCCOCCOCCOCCOCCOCCOCCOCCC(=O)NCC(N)=O)OC(=O)CCCCCCCCCCCCCCC (stereo partly drawn) [INNA-003, PEG-S—S-Pam2Cys]",greatest weight loss,[1],1.89%±1.15%
PEG-[Arg]4-Ser-Ser-Pam2Cys [INNA-002],antiviral effect across doses,[2],dose-dependent antiviral-effect
same,progression of influenza virus to the lungs,[2],inhibited; also recorded: partial inhibition
